Consider 19 compounds from US8367831B2, “Heterocyclic compound or salt thereof and intermediate thereof” (priority 2006, dated 2013).

Common to all, as to assay type: cell-based
One series in a line: Cytotoxicity test (XTT). The note with it: African green monkey, vero cells, 3 days incubation, absorbance 450 nm, read-out: CC50 (concentration when cell proliferation was inhibited by 50%). The method, then:
Each test substance was dissolved in dimethyl sulfoxide and was prepared to each concentration with E-MEM containing 10% FBS, and then 0.1 mL of this solution was dispensed into each well of a 96-well microplate. A vero cell suspension containing 3×10^4 cells/mL was prepared with E-MEM containing 10% FBS, and 0.1 mL of the suspension was inoculated to each well. After incubation in 5% CO2 at 37° C. for 3 days, 50 μL of E-MEM containing 1 mg/mL of 2,3-bis-(2-methoxy-4-nitro-5-sulfophenyl)-5-[(phenylamino)carbonyl]-2H-tetrazolium, inner salt, monosodium salt (XTT) and 25 μM of phenazine methosulfate (PMS) was added to each well. After about 2 hours, the absorbance at 450 nm was measured with a microplate reader.
The absorbance ratio of each well supplied with the test substance and the control not containing the test substance was calculated, and the concentration of each compound when cell proliferation was inhibited by 50% (CC50; μg/mL) was calculated.
(Tetrazolium assays rely on reduction of a dye to a coloured formazan, in cell work by metabolically active cells.)

The next series relates to S. aureus FDA209P. Briefly: Susceptibility test 1: MIC by micro-dilution method. The note with it: Staphylococcus aureus, read-out: MIC (μg/mL) S. aureus FDA209P. The method, then: (§1) Test substances were initially dissolved in dimethylsulfoxide. Antibacterial activities (MICs) of the same compounds were determined by the micro-dilution method as recommended by the Japanese Society of Chemotherapy.
(§2) The bacteria cultured on Mueller-Hinton agar (MHA) plates at 35° C. overnight were suspended in sterile physiological saline in a concentration that was equivalent to 0.5 McFarland. The bacterial inoculum was prepared by 10-fold dilution of this suspension. Approximately 0.005 mL of the bacterial inoculum was inoculated into Cation-adjusted Mueller-Hinton broth (CAMHB, 100 μL/well) containing the test substance and was incubated at 35° C. overnight. The lowest concentration of the test substance at which no bacterial growth was macroscopically observed was determined as the MIC.
For orientation: In broth dilution the organism is exposed to a series of concentrations in liquid medium.

The next series has as its system S. aureus F-3095. The description is as above. The note with it: Staphylococcus aureus. Here is the method: as §1, §2
[1] abbreviates: F3095, read-out: MIC (μg/mL) S. aureus F-3095.
[2] abbreviates: CAMHB, 35° C. overnight, lowest concentration with no macroscopic growth.
Setting [3] is: F3095, F-3095 (MDRSA), CAMHB, 35° C. overnight, lowest concentration with no macroscopic growth, read-out: MIC (μg/mL) S. aureus F-3095.

Converted amounts (≈) assume the structure as drawn. Where a name gives a salt, the structure may show the parent alone. Read-outs that look alike come from different tables or passages of the source. Bounds are passed on as bounds.

Turning to `COc1cnc2ccc(=O)n(CCN3CCC(NCc4cc5c(cn4)OCCO5)[C@H](O)C3)c2c1` (stereo in doubt) [Example 95, 1-(2-((3R,4R)-4-((2,3-dihydro(1,4)dioxino(2,3-c)pyridin-7-ylmethyl)amino)-3-hydroxypiperidin-1-yl)ethyl)-7-methoxy-1,5-naphthyridin-2(1H)-one], the CC50 at 3 days in the series “Cytotoxicity test (XTT)” is not below 51.2 µg/mL. Moreover, the MIC turned out to be 0.0313 µg/mL (≈ 0.0669 µM) in the series with S. aureus FDA209P and 0.0625 µg/mL (≈ 0.134 µM) in the series on S. aureus F-3095 (setting [1]).
In the case of `CCc1ccc(CNC2CCN(CCn3c(=O)ccc4ncc(OC)cc43)CC2)nc1` [Example 123, 1-(2-(4-(((5-ethylpyridin-2-yl)methyl)amino)piperidin-1-yl)ethyl)-7-methoxy-1,5-naphthyridin-2(1H)-one hydrochloride], the MIC in the series on S. aureus FDA209P was found to be 0.0313 µg/mL; in the series on S. aureus F-3095 (setting [1]), 0.125 µg/mL.
With `COc1cnc2ccc(=O)n(CCN3CCC(NCc4cc(-c5ccsc5)on4)CC3)c2c1` [Example 133, 7-methoxy-1-(2-(4-(((5-(3-thienyl)isoxazol-3-yl)methyl)amino)piperidin-1-yl)ethyl)-1,5-naphthyridin-2(1H)-one], the figures for the MIC in the series with S. aureus FDA209P (setting [2]) and in the series on S. aureus F-3095 (setting [3]) were 0.0078 µg/mL (≈ 0.0168 µM) and 0.0156 µg/mL (≈ 0.0335 µM), respectively.
As for `Cc1ccc(CNC2CCN(CCn3c(=O)ccc4ccncc43)CC2)cc1F` [Example 8, 1-(2-(4-((3-fluoro-4-methylbenzyl)amino)piperidin-1-yl)ethyl)-1,7-naphthyridin-2(1H)-one hydrochloride], the CC50 at 3 days in “Cytotoxicity test (XTT)” is not below 51.2 µg/mL. For the same compound, the MIC in the series on S. aureus FDA209P and with S. aureus F-3095 (setting [1]) was 0.0313 µg/mL in each case.
As to `COc1cnc2ccc(=O)n(CCN3CCC(NCc4ccc(C)c(F)c4)CC3)c2c1` [Example 17, 1-(2-(4-((3-fluoro-4-methylbenzyl)amino)piperidin-1-yl)ethyl)-7-methoxy-1,5-naphthyridin-2(1H)-one hydrochloride], the results for the MIC with S. aureus FDA209P and in the series on S. aureus F-3095 (setting [1]) were 0.0039 µg/mL and 0.0313 µg/mL, respectively.
For the compound `COc1cnc2ccc(=O)n(CCN3CCC(NCc4cncc(-c5ccco5)c4)CC3)c2c1` [Example 147, 1-(2-(4-(((5-(2-furyl)pyridin-3-yl)methyl)amino)piperidin-1-yl)ethyl)-7-methoxy-1,5-naphthyridin-2(1H)-one], the MIC in the series on S. aureus FDA209P (setting [2]) is 0.0313 µg/mL (≈ 0.0681 µM); in the series on S. aureus F-3095 (setting [3]) it was 0.0625 µg/mL (≈ 0.136 µM).
With `COc1cnc2ccc(=O)n(CCN3CCC(NCc4cnc(C)c(F)c4)CC3)c2n1` [Example 96, 5-(2-(4-(((5-fluoro-6-methylpyridin-3-yl)methyl)amino)piperidin-1-yl)ethyl)-3-methoxypyrido(2,3-b)pyrazin-6(5H)-one], the CC50 at 3 days in the series “Cytotoxicity test (XTT)” was not below 51.2 µg/mL. The MIC with S. aureus FDA209P (setting [2]) and in the series on S. aureus F-3095 (setting [3]) was 0.0625 µg/mL (≈ 0.147 µM) in each case.
Turning to `COc1ccc2ncc(=O)n(CCN3CCC(NCc4ccc5c(n4)NC(=O)CS5)CC3)c2n1` [Example 55, 6-(((1-(2-(6-methoxy-3-oxopyrido(2,3-b)pyrazin-4(3H)-yl)ethyl)piperidin-4-yl)amino)methyl)-2H-pyrido(3,2-b)(1,4)thiazin-3(4H)-one], in the series “Cytotoxicity test (XTT)”, the CC50 at 3 days was not below 51.2 µg/mL. Also, the MIC with S. aureus FDA209P (setting [2]) turned out to be 0.0039 µg/mL (≈ 0.0081 µM); in the series with S. aureus F-3095 (setting [3]) it was 0.0078 µg/mL (≈ 0.0162 µM).
Regarding `CCc1ncc(CNC2CCN(CCn3c(=O)ccc4ncc(OC)cc43)CC2)cc1F` [Example 137, 1-(2-(4-(((6-ethyl-5-fluoropyridin-3-yl)methyl)amino)piperidin-1-yl)ethyl)-7-methoxy-1,5-naphthyridin-2(1H)-one hydrochloride], the MIC with S. aureus FDA209P was 0.0313 µg/mL; in the series on S. aureus F-3095 (setting [1]), 0.0625 µg/mL.
Turning to `COc1cnc2ccc(=O)n(CCN3CCC(NCc4cnc5c(c4)OCCO5)CC3)c2c1` [Example 80, 1-(2-(4-((2,3-dihydro(1,4)dioxino(2,3-b)pyridin-7-yl)methylamino)piperidin-1-yl)ethyl)-7-methoxy-1,5-naphthyridin-2(1H)-one hydrochloride], the CC50 at 3 days in “Cytotoxicity test (XTT)” was not below 51.2 µg/mL. Moreover, the results for the MIC with S. aureus FDA209P and with S. aureus F-3095 (setting [1]) were 0.0078 µg/mL and 0.0156 µg/mL, respectively.
Turning to `Cc1cc(=O)n(CCN2CCC(NCc3cc4c(cn3)OCCO4)CC2)c2cc(F)cnc12` [Example 146, 1-(2-(4-((2,3-dihydro(1,4)dioxino(2,3-c)pyridin-7-ylmethyl)amino)piperidin-1-yl)ethyl)-7-fluoro-4-methyl-1,5-naphthyridin-2(1H)-one hydrochloride], the MIC with S. aureus FDA209P and in the series on S. aureus F-3095 (setting [1]) was 0.0625 µg/mL each time.
Consider `O=c1ccc2ncc(F)cc2n1CCN1CCC(NCc2cc(-c3ccco3)on2)CC1` [Example 143, 7-fluoro-1-(2-(4-(((5-(2-furyl)isoxazol-3-yl)methyl)amino)piperidin-1-yl)ethyl)-1,5-naphthyridin-2(1H)-one], for which the MIC in the series with S. aureus FDA209P (setting [2]) and with S. aureus F-3095 (setting [3]) was 0.0313 µg/mL (≈ 0.0715 µM) in each case.
For the compound `COc1cnc2ccc(=O)n(CCN3CCC(NCc4ccc5c(n4)NC(=O)CO5)CC3)c2c1` [Example 79, 1-(2-(4-((3-oxo-3,4-dihydro-2H-pyrido(3,2-b)(1,4)oxazin-6-yl)methylamino)piperidin-1-yl)ethyl)-7-methoxy-1,5-naphthyridin-2(1H)-one hydrochloride], the CC50 at 3 days in the series “Cytotoxicity test (XTT)” was not below 51.2 µg/mL. Further, the MIC with S. aureus FDA209P was found to be 0.0078 µg/mL; in the series on S. aureus F-3095 (setting [1]) it was 0.0156 µg/mL.
For the compound `COc1cnc2ccc(=O)n(CCN3CCC(NCc4cncc(-c5cccs5)c4)CC3)c2c1` [Example 141, 7-methoxy-1-(2-(4-(((5-(2-thienyl)pyridin-3-yl)methyl)amino)piperidin-1-yl)ethyl)-1,5-naphthyridin-2(1H)-one hydrochloride], the MIC in the series with S. aureus FDA209P and with S. aureus F-3095 (setting [1]) was 0.0313 µg/mL in each case.
As to `COc1ccc2ccc(=O)n(CCN3CCC(NCc4ccc5c(c4)OCCO5)CC3)c2n1` [Example 44, 1-(2-(4-((2,3-dihydro-1,4-benzodioxin-6-ylmethyl)amino)piperidin-1-yl)ethyl)-7-methoxy-1,8-naphthyridin-2(1H)-one hydrochloride], the MIC with S. aureus FDA209P and with S. aureus F-3095 (setting [1]) was 0.0313 µg/mL throughout.
With `O=c1ccc2ncc(F)cc2n1CCN1CCC(NCc2cc3c(cn2)CCCO3)CC1` [Example 162, 1-(2-(4-((3,4-dihydro-2H-pyrano(3,2-c)pyridin-7-ylmethyl)amino)piperidin-1-yl)ethyl)-7-fluoro-1,5-naphthyridin-2(1H)-one hydrochloride], the MIC with S. aureus FDA209P amounted to 0.0313 µg/mL; in the series on S. aureus F-3095 (setting [1]) it was 0.0625 µg/mL.
For `COc1cnc2ccc(=O)n(CCN3CCC(NCc4cc5c(cn4)OCCCO5)CC3)c2c1` [Example 118, 1-(2-(4-((3,4-dihydro-2H-(1,4)dioxepino(2,3-c)pyridin-8-ylmethyl)amino)piperidin-1-yl)ethyl)-7-methoxy-1,5-naphthyridin-2(1H)-one hydrochloride], in that order: 0.0625 µg/mL and 0.0625 µg/mL.
For `COc1cnc2ccc(=O)n(CCN3CCC(NCc4cc5c(cn4)OCCC5)CC3)c2c1` [Example 144, 1-(2-(4-((3,4-dihydro-2H-pyrano(2,3-c)pyridin-6-ylmethyl)amino)piperidin-1-yl)ethyl)-7-methoxy-1,5-naphthyridin-2(1H)-one hydrochloride], in that order: 0.0313 µg/mL and 0.0313 µg/mL.
For `COc1ccc2ccc(=O)n(CCN3CCC(NCc4cc5c(cn4)OCCO5)CC3)c2n1` [Example 45, 1-(2-(4-((2,3-dihydro(1,4)dioxino(2,3-c)pyridin-7-ylmethyl)amino)piperidin-1-yl)ethyl)-7-methoxy-1,8-naphthyridin-2(1H)-one hydrochloride], the MIC is 0.0313 µg/mL in the series on S. aureus FDA209P and 0.0625 µg/mL in the series on S. aureus F-3095 (setting [1]).
